Active and inactive are the calls of the source.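 Rule for the calls: active = GFP ratio to DMSO above 1.5 or below 0.66; inactive = the rest.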
What was measured:
Experiment in all cases: expression changes of rapamycin-responsive GFP fusion proteins, S. cerevisiae, GFP-tagged clone panel, flow cytometry (AID 504473);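 note: median GFP fluorescence of the cells measured by high-throughput flow cytometry; test concentration not given here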
[1] = test system: YJR148W; settings: S. cerevisiae GFP-tagged strains, 3 h
[2] = test system: YIL066C; settings: S. cerevisiae GFP-tagged strains, 3 h
[3] = test system: YMR251W-A; settings: S. cerevisiae GFP-tagged strains, 3 h
[4] = test system: YHR018C; settings: S. cerevisiae GFP-tagged strains, 3 h
[5] = test system: YLR287C-A; settings: S. cerevisiae GFP-tagged strains, 3 h
[6] = test system: YDL204W; settings: S. cerevisiae GFP-tagged strains, 3 h
[7] = test system: YPL220W; settings: S. cerevisiae GFP-tagged strains, 3 h
[8] = test system: YGL036W; settings: S. cerevisiae GFP-tagged strains, 3 h
[9] = test system: YNL015W; settings: S. cerevisiae GFP-tagged strains, 3 h
[10] = test system: YPL150W; settings: S. cerevisiae GFP-tagged strains, 3 h
[11] = test system: YHR141C; settings: S. cerevisiae GFP-tagged strains, 3 h
[12] = test system: YDL205C; settings: S. cerevisiae GFP-tagged strains, 3 h
[13] = test system: YAL061W; settings: S. cerevisiae GFP-tagged strains, 3 h
[14] = test system: YBR208C; settings: S. cerevisiae GFP-tagged strains, 3 h
[15] = test system: YPL131W; settings: S. cerevisiae GFP-tagged strains, 3 h
[16] = test system: YMR307W; settings: S. cerevisiae GFP-tagged strains, 3 h
[17] = test system: YNL068C; settings: S. cerevisiae GFP-tagged strains, 3 h
[18] = test system: YOR375C; settings: S. cerevisiae GFP-tagged strains, 3 h
[19] = test system: YNR001C; settings: S. cerevisiae GFP-tagged strains, 3 h
[20] = test system: YOR136W; settings: S. cerevisiae GFP-tagged strains, 3 h
[21] = test system: YGL062W; settings: S. cerevisiae GFP-tagged strains, 3 h
[22] = test system: YKR094C; settings: S. cerevisiae GFP-tagged strains, 3 h
[23] = test system: YLR058C; settings: S. cerevisiae GFP-tagged strains, 3 h
[24] = test system: YOR173W; settings: S. cerevisiae GFP-tagged strains, 3 h
[25] = test system: YMR105C; settings: S. cerevisiae GFP-tagged strains, 3 h
[26] = test system: YER117W; settings: S. cerevisiae GFP-tagged strains, 3 h
[27] = test system: YPR132W; settings: S. cerevisiae GFP-tagged strains, 3 h
[28] = test system: YKR039W; settings: S. cerevisiae GFP-tagged strains, 3 h
[29] = test system: YNL214W; settings: S. cerevisiae GFP-tagged strains, 3 h
[30] = test system: YOR182C; settings: S. cerevisiae GFP-tagged strains, 3 h
[31] = test system: YIL043C; settings: S. cerevisiae GFP-tagged strains, 3 h
[32] = test system: YCR005C; settings: S. cerevisiae GFP-tagged strains, 3 h
[33] = test system: YCL064C; settings: S. cerevisiae GFP-tagged strains, 3 h
[34] = test system: YLR367W; settings: S. cerevisiae GFP-tagged strains, 3 h
[35] = test system: YML004C; settings: S. cerevisiae GFP-tagged strains, 3 h
[36] = test system: YOR371C; settings: S. cerevisiae GFP-tagged strains, 3 h
[37] = test system: YGR088W; settings: S. cerevisiae GFP-tagged strains, 3 h
[38] = test system: YER081W; settings: S. cerevisiae GFP-tagged strains, 3 h
[39] = test system: YGR121C; settings: S. cerevisiae GFP-tagged strains, 3 h
[40] = test system: YKL103C; settings: S. cerevisiae GFP-tagged strains, 3 h
[41] = test system: YHR144C; settings: S. cerevisiae GFP-tagged strains, 3 h
[42] = test system: YER156C; settings: S. cerevisiae GFP-tagged strains, 3 h
[43] = test system: YML063W; settings: S. cerevisiae GFP-tagged strains, 3 h
[44] = test system: YHL021C; settings: S. cerevisiae GFP-tagged strains, 3 h
[45] = molecular target: General amino acid permease AGP1 (Saccharomyces cerevisiae S288c) (UniProt P25376); settings: S. cerevisiae GFP-tagged strains, 3 h, YCL025C
Chain of General amino acid permease AGP1 (Saccharomyces cerevisiae S288c) (P25376 whole entry, looked up): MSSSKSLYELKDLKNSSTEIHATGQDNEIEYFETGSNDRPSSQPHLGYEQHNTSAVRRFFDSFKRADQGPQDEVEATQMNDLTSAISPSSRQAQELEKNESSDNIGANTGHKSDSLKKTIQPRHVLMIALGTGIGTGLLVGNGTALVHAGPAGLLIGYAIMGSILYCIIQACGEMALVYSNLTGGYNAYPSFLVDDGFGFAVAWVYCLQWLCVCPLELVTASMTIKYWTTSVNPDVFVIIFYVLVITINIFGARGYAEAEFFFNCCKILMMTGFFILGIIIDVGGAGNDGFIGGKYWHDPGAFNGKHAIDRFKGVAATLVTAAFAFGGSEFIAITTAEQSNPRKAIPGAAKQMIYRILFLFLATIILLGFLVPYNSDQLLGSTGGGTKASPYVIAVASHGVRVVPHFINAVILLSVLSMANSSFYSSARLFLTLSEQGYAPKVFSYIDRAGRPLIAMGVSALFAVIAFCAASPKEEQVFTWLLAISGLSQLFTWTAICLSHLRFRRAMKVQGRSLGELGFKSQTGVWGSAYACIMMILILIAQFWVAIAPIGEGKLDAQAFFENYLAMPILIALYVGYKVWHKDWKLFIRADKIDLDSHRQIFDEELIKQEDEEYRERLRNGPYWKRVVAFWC

[46] = test system: YKL119C; settings: S. cerevisiae GFP-tagged strains, 3 h
[47] = test system: YGL147C; settings: S. cerevisiae GFP-tagged strains, 3 h
[48] = test system: YBR139W; settings: S. cerevisiae GFP-tagged strains, 3 h

In the case of CO[C@H]1C[C@@H]2CC[C@@H](C)[C@@](O)(O2)C(=O)C(=O)N2CCCC[C@H]2C(=O)O[C@H]([C@H](C)C[C@@H]2CC[C@@H](O)[C@H](OC)C2)CC(=O)[C@H](C)/C=C(\C)[C@@H](O)[C@@H](OC)C(=O)[C@H](C)C[C@H](C)/C=C/C=C/C=C/1C, the GFP ratio to DMSO [1] was 3.38, the GFP ratio to DMSO [2] was 1.17 (inactive) and the GFP ratio to DMSO [3] was 1.96. For the same compound, the GFP ratio to DMSO [4] was 1.54, the GFP ratio to DMSO [5] was 0.625 and the GFP ratio to DMSO [6] was 1.4 (inactive). The GFP ratio to DMSO [7] was 0.887 (inactive), the GFP ratio to DMSO [8] was 0.919 (inactive) and the GFP ratio to DMSO [9] was 1.88. The GFP ratio to DMSO [10] was 1.04 (inactive), the GFP ratio to DMSO [11] was 0.777 (inactive) and the GFP ratio to DMSO [12] was 0.898 (inactive). For the same compound, the GFP ratio to DMSO [13] was 2.14, the GFP ratio to DMSO [14] was 3.04 and the GFP ratio to DMSO [15] was 0.781 (inactive). For the same compound, the GFP ratio to DMSO [16] was 0.685 (inactive), the GFP ratio to DMSO [17] was 1.06 (inactive) and the GFP ratio to DMSO [18] was 1.78. The GFP ratio to DMSO [19] was 1.7, the GFP ratio to DMSO [20] was 1.51 and the GFP ratio to DMSO [21] was 2.27. For the same compound, the GFP ratio to DMSO [22] was 0.484, the GFP ratio to DMSO [23] was 1.04 (inactive) and the GFP ratio to DMSO [24] was 1.86. It also gave a GFP ratio to DMSO [25] of 2.65, a GFP ratio to DMSO [26] of 0.304 and a GFP ratio to DMSO [27] of 0.366. The GFP ratio to DMSO [28] was 12.7, the GFP ratio to DMSO [29] was 1.06 (inactive) and the GFP ratio to DMSO [30] was 0.576. The GFP ratio to DMSO [31] was 0.996 (inactive), the GFP ratio to DMSO [32] was 4.59 and the GFP ratio to DMSO [33] was 1.28 (inactive). For the same compound, the GFP ratio to DMSO [34] was 0.635, the GFP ratio to DMSO [35] was 1.5 (inactive) and the GFP ratio to DMSO [36] was 1.06 (inactive). For the same compound, the GFP ratio to DMSO [37] was 2.06, the GFP ratio to DMSO [38] was 1.08 (inactive) and the GFP ratio to DMSO [39] was 1.72. For the same compound, the GFP ratio to DMSO [40] was 2.8, the GFP ratio to DMSO [41] was 0.869 (inactive) and the GFP ratio to DMSO [42] was 1.05 (inactive). For the same compound, the GFP ratio to DMSO [43] was 0.714 (inactive), the GFP ratio to DMSO [44] was 2.52 and the GFP ratio to DMSO [45] was 2.27. The GFP ratio to DMSO [46] was 1.03 (inactive), the GFP ratio to DMSO [47] was 0.682 (inactive) and the GFP ratio to DMSO [48] was 1.61.

Reference: PubChem BioAssay AID504473 (NMMLSC, 2011)
